Assay results reported in PubChem BioAssay (NCI).
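Exposure lasted 48 hours, with cells grown in 96-well plates and compounds tested at five concentrations. TGI: concentration producing complete growth inhibition.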

Key:
Assay in all cases: NCI anticancer screen, dose series, 48 h
[1] = test system: T-47D breast
[2] = test system: SF-268 CNS
[3] = test system: SF-295 CNS
[4] = test system: SW-620 colon
[5] = test system: HCT-116 colon
[6] = test system: MDA-MB-231 breast
[7] = test system: SNB-19 CNS
[8] = test system: LOX IMVI melanoma
[9] = test system: NCI-H226 lung
[10] = test system: MDA-N
[11] = test system: NCI-H460 lung
[12] = test system: SN12C renal
[13] = test system: HOP-62 NSCLC
[14] = test system: OVCAR-3 ovarian
[15] = test system: COLO 205 colon
[16] = test system: 786-0 renal
[17] = test system: A498 renal
[18] = test system: RXF 393 renal
[19] = test system: MDA-MB-435
[20] = test system: TK-10 renal
[21] = test system: NCI/ADR-RES ovarian
[22] = test system: HS 578T breast
[23] = test system: UACC-257 melanoma
[24] = test system: PC-3 prostate
[25] = test system: EKVX NSCLC
[26] = test system: OVCAR-8 ovarian
[27] = test system: HCT-15 colon
[28] = test system: OVCAR-5 ovarian
[29] = test system: U251 CNS
[30] = test system: CAKI-1 renal
[31] = test system: UO-31 renal
[32] = test system: SF-539 CNS
[33] = test system: OVCAR-4 ovarian
[34] = test system: A549 NSCLC
[35] = test system: KM12 colon
[36] = test system: IGROV1 ovarian
[37] = test system: DU-145 prostate
[38] = test system: MOLT-4 leukemia
[39] = test system: RPMI-8226 leukemia
[40] = test system: HT29 colon
[41] = test system: HCC-2998 colon
[42] = test system: SNB-75 CNS
[43] = test system: MALME-3M melanoma
[44] = test system: SR leukemia
[45] = test system: SK-OV-3 ovarian
[46] = test system: SK-MEL-5 melanoma
[47] = test system: SK-MEL-28 melanoma
[48] = test system: UACC-62 melanoma
[49] = test system: HOP-92 NSCLC
[50] = test system: MCF7 breast
[51] = test system: SK-MEL-2 melanoma
[52] = test system: NCI-H522 lung
[53] = test system: ACHN renal
[54] = test system: NCI-H23 lung
[55] = test system: M14 melanoma
[56] = test system: K-562 leukemia
[57] = test system: CCRF-CEM leukemia
[58] = test system: HL-60(TB) leukemia

Question: How did the TGI [1] turn out when `O=C(NC/C(Cl)=C/Cl)Nc1c2ccccc2nc2ccccc12` was run?
Answer: Its TGI is over 100 µM.

Question: What about the TGI [2] of the same molecule?
Answer: Its TGI is over 100 µM.

Question: And the TGI [3]?
Answer: Its TGI is over 100 µM.

Question: What about the TGI [4] of the same molecule?
Answer: The TGI was over 100 µM.

Question: And the TGI [5]?
Answer: The TGI was over 100 µM.

Question: And the TGI [6]?
Answer: The TGI was 80.1 µM.

Question: And the TGI [7]?
Answer: Its TGI is over 100 µM.

Question: What about the TGI [8] of the same molecule?
Answer: Its TGI is over 100 µM.

Question: And the TGI [9]?
Answer: Its TGI is over 100 µM.

Question: And the TGI [10]?
Answer: Its TGI is over 100 µM.

Question: And the TGI [11]?
Answer: Its TGI is over 100 µM.

Question: What about the TGI [12] of the same molecule?
Answer: The TGI was over 100 µM.

Question: What about the TGI [13] of the same molecule?
Answer: The TGI was over 100 µM.

Question: What about the TGI [14] of the same molecule?
Answer: Its TGI is over 100 µM.

Question: What about the TGI [15] of the same molecule?
Answer: Its TGI is over 100 µM.

Question: What about the TGI [16] of the same molecule?
Answer: The TGI was over 100 µM.

Question: And the TGI [17]?
Answer: Its TGI is over 100 µM.

Question: What about the TGI [18] of the same molecule?
Answer: Its TGI is over 100 µM.

Question: What about the TGI [19] of the same molecule?
Answer: The TGI was over 100 µM.

Question: And the TGI [20]?
Answer: Its TGI is over 100 µM.

Question: And the TGI [21]?
Answer: Its TGI is over 100 µM.

Question: And the TGI [22]?
Answer: The TGI was over 100 µM.

Question: What about the TGI [23] of the same molecule?
Answer: The TGI was over 100 µM.

Question: And the TGI [24]?
Answer: Its TGI is over 100 µM.

Question: And the TGI [25]?
Answer: Its TGI is over 100 µM.

Question: What about the TGI [26] of the same molecule?
Answer: The TGI was over 100 µM.

Question: And the TGI [27]?
Answer: Its TGI is over 100 µM.

Question: And the TGI [28]?
Answer: The TGI was over 100 µM.

Question: What about the TGI [29] of the same molecule?
Answer: Its TGI is over 100 µM.

Question: And the TGI [30]?
Answer: The TGI was over 100 µM.

Question: And the TGI [31]?
Answer: The TGI was over 100 µM.

Question: What about the TGI [32] of the same molecule?
Answer: The TGI was 93.2 µM.

Question: And the TGI [33]?
Answer: The TGI was over 100 µM.

Question: What about the TGI [34] of the same molecule?
Answer: Its TGI is over 100 µM.

Question: And the TGI [35]?
Answer: Its TGI is over 100 µM.

Question: And the TGI [36]?
Answer: Its TGI is over 100 µM.

Question: What about the TGI [37] of the same molecule?
Answer: The TGI was over 100 µM.

Question: What about the TGI [38] of the same molecule?
Answer: The TGI was over 100 µM.

Question: And the TGI [39]?
Answer: Its TGI is over 100 µM.

Question: What about the TGI [40] of the same molecule?
Answer: Its TGI is over 100 µM.

Question: And the TGI [41]?
Answer: The TGI was over 100 µM.

Question: And the TGI [42]?
Answer: The TGI was over 100 µM.

Question: And the TGI [43]?
Answer: Its TGI is over 100 µM.

Question: What about the TGI [44] of the same molecule?
Answer: The TGI was over 100 µM.

Question: And the TGI [45]?
Answer: Its TGI is over 100 µM.

Question: What about the TGI [46] of the same molecule?
Answer: The TGI was over 100 µM.

Question: What about the TGI [47] of the same molecule?
Answer: Its TGI is over 100 µM.

Question: And the TGI [48]?
Answer: The TGI was over 100 µM.

Question: What about the TGI [49] of the same molecule?
Answer: Its TGI is over 100 µM.

Question: What about the TGI [50] of the same molecule?
Answer: The TGI was over 100 µM.

Question: What about the TGI [51] of the same molecule?
Answer: Its TGI is over 100 µM.

Question: What about the TGI [52] of the same molecule?
Answer: Its TGI is over 100 µM.

Question: And the TGI [53]?
Answer: The TGI was over 100 µM.

Question: What about the TGI [54] of the same molecule?
Answer: Its TGI is over 100 µM.

Question: What about the TGI [55] of the same molecule?
Answer: Its TGI is over 100 µM.

Question: Which results are given for `CCN(CC)CCOCCn1c2c(c3ccccc31)CCCC2`?
Answer: TGI [1]: 52.9 µM; TGI [2]: > 100 µM; TGI [3]: > 100 µM; TGI [4]: 36.8 µM; TGI [56]: 30.2 µM; TGI [5]: 29.4 µM; TGI [6]: 35.1 µM; TGI [8]: 37.3 µM; TGI [9]: 55.2 µM; TGI [57]: 50.9 µM; TGI [10]: 31.1 µM; TGI [11]: 39.1 µM; TGI [12]: 35.5 µM; TGI [13]: 31.5 µM; TGI [14]: > 100 µM; TGI [15]: 39.1 µM; TGI [16]: 30 µM; TGI [19]: 32.7 µM; TGI [20]: 38.5 µM; TGI [21]: 33.3 µM; TGI [22]: 56.5 µM; TGI [23]: 48.7 µM; TGI [24]: 59.5 µM; TGI [25]: > 100 µM; TGI [26]: > 100 µM; TGI [27]: 34.5 µM; TGI [28]: 41.3 µM; TGI [29]: 49.3 µM; TGI [31]: 36.8 µM; TGI [32]: 32 µM; TGI [58]: 24.6 µM; TGI [33]: > 100 µM; TGI [34]: 72.2 µM; TGI [35]: > 100 µM; TGI [36]: 60 µM; TGI [37]: 91.1 µM; TGI [38]: 35.5 µM; TGI [39]: 51.1 µM; TGI [40]: 90.2 µM; TGI [41]: 31 µM; TGI [42]: > 100 µM; TGI [43]: 29.3 µM; TGI [44]: 35.5 µM; TGI [45]: 86.3 µM; TGI [46]: 26.3 µM; TGI [47]: 40 µM; TGI [48]: 32.4 µM; TGI [49]: 68.9 µM; TGI [50]: 35.2 µM; TGI [51]: 29.6 µM; TGI [53]: 41.9 µM; TGI [54]: > 100 µM; TGI [55]: 31.3 µM
